Data published in PubChem BioAssay AID330 (DTP/NCI, 2004).
Several values for one entry are separate records, joined by “and”; a condition that tells them apart may be missing. Equal values may be shown once. Inconclusive results and toxic doses are left out. Rule for the calls: active = survival T/C of 150% or more; inactive = T/C below 125% in these data.

System: P388 leukemia ip, CD2F1 mice, survival T/C
Test: NCI In Vivo Anticancer Drug Screen. Data for tumor model P388 Leukemia (intraperitoneal) in CD2F1 (CDF1) mice
Conditions: endpoint: median survival time, higher = longer survival
Method in brief: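 Mice carrying the transplanted tumor received test compound or vehicle. Survival was recorded in each group, and the value is the treated-group measurement divided by that of the vehicle-treated control group.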

[1] = dose: 50.0 mg/kg/injection, schedule: Q01DX009 (ip), vehicle: saline with Tween-80
[2] = dose: 100.0 mg/kg/injection, schedule: Q01DX009 (ip), vehicle: saline with Tween-80
[3] = dose: 200.0 mg/kg/injection, schedule: Q01DX009 (ip), vehicle: saline with Tween-80
[4] = dose: 12.5 mg/kg/injection, schedule: Q01DX009 (ip), vehicle: water
[5] = dose: 25.0 mg/kg/injection, schedule: Q01DX009 (ip), vehicle: water
[6] = dose: 50.0 mg/kg/injection, schedule: Q01DX005 (ip), vehicle: saline with Tween-80
[7] = dose: 100.0 mg/kg/injection, schedule: Q01DX005 (ip), vehicle: saline with Tween-80
[8] = dose: 200.0 mg/kg/injection, schedule: Q01DX005 (ip), vehicle: saline with Tween-80
[9] = dose: 25.0 mg/kg/injection, schedule: Q01DX005 (ip), vehicle: Klucel (hydroxypropylcellulose) (HPC)
[10] = dose: 50.0 mg/kg/injection, schedule: Q01DX005 (ip), vehicle: Klucel (hydroxypropylcellulose) (HPC)
[11] = dose: 100.0 mg/kg/injection, schedule: Q01DX005 (ip), vehicle: Klucel (hydroxypropylcellulose) (HPC)

Measured: T/C

COc1cccc2c1C(=O)c1c(O)c3c(c(O)c1C2=O)CC(O)(C(C)=O)CC3OC1CC(NCC2(O)OCC(O)C(OC3OC(CO)C(O)C(O)C3O)C2O)C(O)C(C)O1 (stereo unspecified)
inactive: dose: 1.56 mg/kg/injection, schedule: Q04DX003 (ip), vehicle: water 100 % of control | dose: 3.12 mg/kg/injection, schedule: Q04DX003 (ip), vehicle: water 98 % of control and 99 % of control | dose: 3.13 mg/kg/injection, schedule: Q04DX003 (ip), vehicle: water 95 % of control | dose: 6.25 mg/kg/injection, schedule: Q04DX003 (ip), vehicle: water 99 % of control and 102 % of control and 103 % of control | dose: 12.5 mg/kg/injection, schedule: Q04DX003 (ip), vehicle: water 100 % of control | dose: 25.0 mg/kg/injection, schedule: Q04DX003 (ip), vehicle: water 105 % of control and 108 % of control and 119 % of control | dose: 50.0 mg/kg/injection, schedule: Q04DX003 (ip), vehicle: water 119 % of control

CC1(C)CC2(C)OC2C2(C1)N=NC(=O)O2 (stereo unspecified)
inactive: dose: 50.0 mg/kg/injection, schedule: Q01DX009 (ip), vehicle: saline + alcohol 90 % of control | [1] 89 % of control | dose: 100.0 mg/kg/injection, schedule: Q01DX009 (ip), vehicle: saline + alcohol 100 % of control | [2] 87 % of control | dose: 200.0 mg/kg/injection, schedule: Q01DX009 (ip), vehicle: saline + alcohol 93 % of control | dose: 400.0 mg/kg/injection, schedule: Q01DX009 (ip), vehicle: saline + alcohol 108 % of control

Cc1ccc(C(O)(C(F)(F)F)C(O)(c2ccc(C)cc2)C(F)(F)F)cc1 (stereo unspecified)
inactive: [1] 107 % of control and 100 % of control | [2] 107 % of control and 104 % of control | [3] 101 % of control and 105 % of control

C=CCC1CCCCC1=O (stereo unspecified) (tested in a mixture with another compound)
inactive: [1] 105 % of control | [2] 104 % of control | [3] 115 % of control

[BH]n1cccn1.[CH3][Sn]([CH3])[N]=C=S
inactive: dose: 100.0 mg/kg/injection, schedule: Q04DX003 (ip), vehicle: saline 117 % of control | dose: 200.0 mg/kg/injection, schedule: Q04DX003 (ip), vehicle: saline 117 % of control

C[n+]1c(-c2cc(Cl)cc(Cl)c2)c2cc(N)ccc2c2ccccc21
inactive: dose: 3.13 mg/kg/injection, schedule: Q01DX009 (ip), vehicle: water 120 % of control | dose: 6.25 mg/kg/injection, schedule: Q01DX009 (ip), vehicle: water 122 % of control | [4] 114 % of control | [5] 102 % of control

CC1(C)C(=O)c2ccccc2-c2ccccc21
inactive: [6] 101 % of control | [7] 104 % of control | [8] 103 % of control

COc1ccc(C(c2cc3c(cc2O)OCO3)N2CCN(C(c3ccc(OC)cc3)c3cc4c(cc3O)OCO4)CC2)cc1 (stereo unspecified)
inactive: dose: 60.0 mg/kg/injection, schedule: Q01DX005 (ip), vehicle: saline with Tween-80 87 % of control | dose: 120.0 mg/kg/injection, schedule: Q01DX005 (ip), vehicle: saline with Tween-80 92 % of control | dose: 240.0 mg/kg/injection, schedule: Q01DX005 (ip), vehicle: saline with Tween-80 87 % of control

C[C@@H](N)C(=O)NC(CO)CC(N)C=O (stereo partly specified)
inactive: dose: 50.0 mg/kg/injection, schedule: Q04DX002 (ip), vehicle: saline 105 % of control and 115 % of control | dose: 100.0 mg/kg/injection, schedule: Q04DX002 (ip), vehicle: saline 111 % of control and 120 % of control | dose: 200.0 mg/kg/injection, schedule: Q04DX002 (ip), vehicle: saline 109 % of control and 121 % of control | dose: 400.0 mg/kg/injection, schedule: Q04DX002 (ip), vehicle: saline 122 % of control

CC(C)C(NC(=O)OCc1ccccc1)C(=O)NC(Cc1c[nH]c2ccccc12)C(=O)O (stereo unspecified)
inactive: [6] 99 % of control | [7] 99 % of control | [8] 95 % of control

Cc1ccc2nc3ccccc3cc2c1
inactive: dose: 25.0 mg/kg/injection, schedule: Q04DX003 (ip), vehicle: saline with Tween-80 104 % of control | dose: 50.0 mg/kg/injection, schedule: Q04DX003 (ip), vehicle: saline with Tween-80 100 % of control | dose: 100.0 mg/kg/injection, schedule: Q04DX003 (ip), vehicle: saline with Tween-80 95 % of control | dose: 200.0 mg/kg/injection, schedule: Q04DX003 (ip), vehicle: saline with Tween-80 99 % of control

CC1OC(c2ccc3c(c2O)C(=O)C2=C(C3=O)[C@H]3OC(=O)C[C@H]3O[C@@H]2C)CC(N(C)C)C1O (stereo partly specified)
inactive: dose: 1.5 mg/kg/injection, schedule: Q01DX005 (ip), vehicle: other 91 % of control | dose: 750.0 micrograms/kg/injection, schedule: Q01DX005 (ip), vehicle: other 86 % of control | dose: 1500.0 micrograms/kg/injection, schedule: Q01DX005 (ip), vehicle: other 90 % of control | dose: 3000.0 micrograms/kg/injection, schedule: Q01DX005 (ip), vehicle: other 88 % of control

O=S=NSc1c(F)c(F)c(F)c(F)c1F
inactive: [6] 104 % of control | [7] 111 % of control

CS/C(=C1/C(=O)N(c2ccccc2)N=C1c1ccc(Cl)cc1)N1CC1
inactive: dose: 25.0 mg/kg/injection, schedule: Q04DX003 (ip), vehicle: Klucel (hydroxypropylcellulose) (HPC) 96 % of control | dose: 50.0 mg/kg/injection, schedule: Q04DX003 (ip), vehicle: Klucel (hydroxypropylcellulose) (HPC) 99 % of control | dose: 100.0 mg/kg/injection, schedule: Q04DX003 (ip), vehicle: Klucel (hydroxypropylcellulose) (HPC) 99 % of control | dose: 200.0 mg/kg/injection, schedule: Q04DX003 (ip), vehicle: Klucel (hydroxypropylcellulose) (HPC) 99 % of control | dose: 400.0 mg/kg/injection, schedule: Q04DX003 (ip), vehicle: Klucel (hydroxypropylcellulose) (HPC) 91 % of control

C[n+]1c(SCC(=O)O)sc2ccccc21
inactive: dose: 12.5 mg/kg/injection, schedule: Q01DX009 (ip), vehicle: saline 99 % of control | dose: 25.0 mg/kg/injection, schedule: Q01DX009 (ip), vehicle: saline 104 % of control | dose: 50.0 mg/kg/injection, schedule: Q01DX009 (ip), vehicle: saline 108 % of control and 122 % of control

CC(=NCCCCN=C(C)c1cc(C)cc(Br)c1O)c1cc(C)cc(Br)c1O
inactive: [9] 100 % of control | [10] 96 % of control | [11] 95 % of control | dose: 200.0 mg/kg/injection, schedule: Q01DX005 (ip), vehicle: Klucel (hydroxypropylcellulose) (HPC) 98 % of control

CC(=O)O[C@H]1/C=C(\C)[C@@H](O)C/C=C(\C)CC(OC(=O)c2ccccc2)[C@H]1C(C)C (stereo partly specified)
inactive: dose: 12.5 mg/kg/injection, schedule: Q01DX005 (ip), vehicle: Klucel (hydroxypropylcellulose) (HPC) 98 % of control | [9] 98 % of control | [10] 100 % of control | [11] 95 % of control

C1=C(CC2=C[P+](c3ccccc3)(c3ccccc3)C=C(c3ccccc3)O2)OC(c2ccccc2)=C[P+]1(c1ccccc1)c1ccccc1
inactive: dose: 0.75 mg/kg/injection, schedule: Q01DX005 (ip), vehicle: saline with Tween-80 115 % of control | dose: 3.0 mg/kg/injection, schedule: Q01DX005 (ip), vehicle: saline 124 % of control

C=C(CCC(C(=O)O)C1C(O)CC2(C)C3=C(CCC12C)C1(C)CCC(OC(C)=O)C(C)(C)C1CC3)C(C)C (stereo unspecified)
inactive: dose: 12.5 mg/kg/injection, schedule: Q01DX009 (ip), vehicle: saline with Tween-80 100 % of control | dose: 25.0 mg/kg/injection, schedule: Q01DX009 (ip), vehicle: saline with Tween-80 96 % of control | [1] 98 % of control

CN(C)CCCNc1ccc(O)c2c1C(=O)c1ccccc1C2=O
inactive: [4] 93 % of control | [5] 97 % of control | dose: 50.0 mg/kg/injection, schedule: Q01DX009 (ip), vehicle: water 96 % of control | dose: 100.0 mg/kg/injection, schedule: Q01DX009 (ip), vehicle: water 104 % of control

C1CCN(CCC[Si]23OCCN(CCO2)CCO3)CC1
inactive: [6] 102 % of control | [7] 108 % of control | [8] 106 % of control
